In patent USRE30456E, “2-Substituted phenyl-s-triazolo[5,1-a] isoquinoline compounds” (Gruppo Lepetit S.p.A., priority 1973, dated 1980):

System: carrageenin induced edema
Assay: carrageenin test in rats (anti-inflammatory activity)
Format: in vivo
Excerpt: The anti-inflammatory activity of some inventive compounds was evidenced by means of the carrageenin test in rats.

## Sc1nc2n(n1)CCc1ccccc1-2 [Example 38, 2-Sulfhydryl-5,6-dihydro-s-triazolo[5,1-a]isoquinoline]
50 mg./kg. p.o.
  inhibition of the carrageenin induced edema: about 35%

## NC(=O)Nc1nc2n(n1)CCc1ccccc1-2 [Example 54, 2-Ureido-5,6-dihydro-s-triazolo[5,1-a]isoquinoline]
100 mg./kg. p.o.
  inhibition of the carrageenin induced edema: about 35%
